Activity calls are given as the source filed them.
Assays:
[1] = P. falciparum late gametocyte killing, dose response, luminescence (AID 1117278); format: functional, cell-based;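 also: gametocytes exposed to compound for 24 hours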
[2] = Jurkat T cell cytotoxicity, dose response, cytotoxicity control for P. falciparum gametocyte viability project, luminescence (AID 1117277); format: functional, cell-based;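 also: potency reflects loss of cellular ATP meaning fewer viable cells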
[3] = biological target: Protein Tat (Human immunodeficiency virus type 1 group M subtype B (isolate HXB2)(HIV-1), UniProt P04608); format: functional;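 also: tat binding to TAR RNA read out by fluorescence polarization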
[4] = biological target: Mitochondrial peptide methionine sulfoxide reductase (Bos taurus, UniProt P54149); experiment: Absorbance-based biochemical high throughput dose response assay for activators of Methionine sulfoxide reductase A (MsrA).; format: functional
[5] = biological target: T1, Corticotropin-releasing factor receptor 2/Corticotropin-releasing factor-binding protein (Homo sapiens, UniProt P24387+Q13324); experiment: activators of CRF receptor 2 with binding protein – uHTS hits, confirmation (AID 602473); format: functional; conditions: read-out: EC50_Mean
T1 sequence (Q13324 whole entry): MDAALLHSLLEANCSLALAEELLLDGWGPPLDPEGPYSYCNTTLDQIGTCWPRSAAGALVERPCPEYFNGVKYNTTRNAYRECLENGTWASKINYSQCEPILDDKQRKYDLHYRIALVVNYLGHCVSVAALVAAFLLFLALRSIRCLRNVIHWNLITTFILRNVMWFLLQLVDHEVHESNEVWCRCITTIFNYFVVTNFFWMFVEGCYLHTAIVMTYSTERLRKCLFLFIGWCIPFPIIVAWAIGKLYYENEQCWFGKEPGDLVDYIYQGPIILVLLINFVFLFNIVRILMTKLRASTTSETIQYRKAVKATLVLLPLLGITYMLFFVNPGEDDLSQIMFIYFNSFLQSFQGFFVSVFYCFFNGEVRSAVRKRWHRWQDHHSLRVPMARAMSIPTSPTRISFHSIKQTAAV
T1 sequence (P24387 whole entry): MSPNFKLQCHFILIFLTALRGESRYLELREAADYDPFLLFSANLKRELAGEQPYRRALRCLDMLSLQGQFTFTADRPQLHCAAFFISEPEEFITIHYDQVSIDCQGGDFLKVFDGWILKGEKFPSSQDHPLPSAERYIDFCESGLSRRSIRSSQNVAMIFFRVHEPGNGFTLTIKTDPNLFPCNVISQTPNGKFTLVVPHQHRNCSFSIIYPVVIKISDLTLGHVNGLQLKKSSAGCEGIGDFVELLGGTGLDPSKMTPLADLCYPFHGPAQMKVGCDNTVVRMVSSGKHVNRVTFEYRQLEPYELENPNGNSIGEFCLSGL

[6] = biological target: T2, Caspase-6 (Homo sapiens, UniProt P55212); experiment: human caspase-6 inhibitors, dose response, biochemical, VEID-R110 fluorescence, cherry-pick (AID 720632)
T2 sequence (P55212 whole entry): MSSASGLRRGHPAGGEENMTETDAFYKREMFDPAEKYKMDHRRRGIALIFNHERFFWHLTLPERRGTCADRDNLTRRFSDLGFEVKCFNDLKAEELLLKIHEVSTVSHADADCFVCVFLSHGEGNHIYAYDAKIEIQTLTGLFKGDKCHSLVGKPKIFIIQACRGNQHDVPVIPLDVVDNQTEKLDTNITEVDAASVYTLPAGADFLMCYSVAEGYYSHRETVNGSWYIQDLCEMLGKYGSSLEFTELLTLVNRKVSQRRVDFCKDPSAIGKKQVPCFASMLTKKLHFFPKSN

[7] = biological target: T3, Histone-lysine N-methyltransferase NSD2 (Homo sapiens, UniProt O96028); format: biochemical
T3 sequence (O96028 whole entry): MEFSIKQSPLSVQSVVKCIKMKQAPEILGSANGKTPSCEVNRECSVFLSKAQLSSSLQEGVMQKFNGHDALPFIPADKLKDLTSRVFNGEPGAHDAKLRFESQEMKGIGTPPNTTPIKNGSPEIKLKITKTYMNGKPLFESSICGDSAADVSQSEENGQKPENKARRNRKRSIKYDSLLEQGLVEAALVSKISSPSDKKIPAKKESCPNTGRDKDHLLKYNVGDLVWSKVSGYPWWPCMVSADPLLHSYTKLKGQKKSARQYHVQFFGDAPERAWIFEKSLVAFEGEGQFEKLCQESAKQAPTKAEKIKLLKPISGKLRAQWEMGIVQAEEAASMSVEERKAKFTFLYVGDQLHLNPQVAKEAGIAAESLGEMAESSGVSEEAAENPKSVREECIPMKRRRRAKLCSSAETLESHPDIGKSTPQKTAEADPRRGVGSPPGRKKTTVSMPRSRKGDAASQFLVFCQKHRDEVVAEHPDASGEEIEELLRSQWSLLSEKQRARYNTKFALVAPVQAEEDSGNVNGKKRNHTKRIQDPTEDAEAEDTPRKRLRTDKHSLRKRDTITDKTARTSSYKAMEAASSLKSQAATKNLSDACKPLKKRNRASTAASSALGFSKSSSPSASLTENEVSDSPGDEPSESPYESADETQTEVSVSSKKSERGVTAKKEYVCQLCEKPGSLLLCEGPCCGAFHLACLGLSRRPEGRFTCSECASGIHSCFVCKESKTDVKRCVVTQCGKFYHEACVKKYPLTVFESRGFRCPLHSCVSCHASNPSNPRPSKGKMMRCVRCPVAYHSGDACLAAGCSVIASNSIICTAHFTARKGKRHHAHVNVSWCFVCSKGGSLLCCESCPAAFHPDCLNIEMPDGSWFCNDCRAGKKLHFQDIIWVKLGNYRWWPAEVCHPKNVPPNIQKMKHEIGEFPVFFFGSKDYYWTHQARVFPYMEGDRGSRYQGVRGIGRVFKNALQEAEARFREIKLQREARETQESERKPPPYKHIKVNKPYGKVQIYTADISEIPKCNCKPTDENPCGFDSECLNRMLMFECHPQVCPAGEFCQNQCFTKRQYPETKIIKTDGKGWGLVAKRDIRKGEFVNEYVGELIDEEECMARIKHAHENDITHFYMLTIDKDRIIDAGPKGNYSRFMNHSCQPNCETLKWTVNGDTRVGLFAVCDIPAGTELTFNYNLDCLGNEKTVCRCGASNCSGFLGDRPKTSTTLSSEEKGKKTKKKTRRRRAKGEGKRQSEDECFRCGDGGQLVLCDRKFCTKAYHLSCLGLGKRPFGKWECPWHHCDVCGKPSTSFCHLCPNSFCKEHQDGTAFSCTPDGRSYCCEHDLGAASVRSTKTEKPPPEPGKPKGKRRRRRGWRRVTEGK

[8] = biological target: T4, Caspase-7 (Homo sapiens, UniProt P55210); experiment: human caspase-7 inhibitors, dose response, selectivity assay for caspase-6 inhibitor project, biochemical, DEVD-R110 fluorescence, cherry-pick (AID 743295)
T4 sequence (P55210 whole entry): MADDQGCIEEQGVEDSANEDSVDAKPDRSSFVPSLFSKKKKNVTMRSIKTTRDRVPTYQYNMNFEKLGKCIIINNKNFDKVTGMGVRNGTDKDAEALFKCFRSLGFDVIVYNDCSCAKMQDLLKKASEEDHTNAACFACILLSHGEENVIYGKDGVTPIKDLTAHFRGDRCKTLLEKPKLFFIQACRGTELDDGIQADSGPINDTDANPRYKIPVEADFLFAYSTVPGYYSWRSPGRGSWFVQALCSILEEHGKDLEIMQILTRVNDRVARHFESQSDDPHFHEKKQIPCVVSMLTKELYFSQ

[9] = biological target: Paired box protein Pax-8 (Homo sapiens, UniProt Q06710); experiment: inhibitors of PAX8-driven TPO luciferase reporter, dose response, RMG-I cells, cherry-pick (AID 687027); format: functional, cell-based;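 also: luciferase reporter driven by Pax8 target thyroperoxidase promoter measured by SteadyGlo luminescence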
[10] = A2780 ovarian cancer cell cytotoxicity, dose response, cytotoxicity control, plate reader, dry powder samples (AID 743046); format: functional, cell-based
[11] = NIH:OVCAR-3 ovarian cancer cell cytotoxicity, dose response, PAX8 inhibitor project, plate reader, dry powder samples (AID 743044); format: functional, cell-based
[12] = cytotoxicity in OVCAR8 ovarian cancer cells, dose response, PAX8 project, cell-based, plate reader, dry powder samples (AID 743197); format: functional; conditions: OVCAR-8
[13] = IGROV1 ovarian cancer cell cytotoxicity, dose response, PAX8 inhibitor project, plate reader, dry powder samples (AID 743043); format: functional, cell-based; conditions: IGROV-1
[14] = inhibitors of PGC1a acetylation in cells, dose response, cell-based, cherry-picked samples (AID 720514); format: functional;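 also: potency may reflect raised or lowered acetylation signal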
[15] = A375 melanoma cell viability loss, dose response, counter-screen for MITF inhibitor project, CellTiter-Glo luminescence, dry powder, set 4 (AID 624364); format: functional, cell-based; conditions: A-375;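 also: A375 melanoma cells are MITF independent so this is a counter screen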
[16] = A375 melanoma cell cytotoxicity, dose response, counter-screen for MITF inhibitor project, CellTiter-Glo luminescence, dry powder, set 2 (AID 624489); format: functional, cell-based; conditions: A-375;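 also: actives are compounds lowering A375 viability meaning general cytotoxicity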
[17] = HeLa 2N DNA content increase, dose response, cell-based, IC50 (AID 1117349); format: functional
[18] = Concentration-dependent survival of SW480 colon cancer line, luminescence detection with CellTiter-Glo, half-maximal inhibitory concentration (AID 1117338); format: functional
[19] = RKO cell viability reduction, dose response, CellTiter-Glo luminescence (AID 1117322); format: functional
[20] = cytotoxicity toward HCT116 cells – cell-based, CellTiter-Glo luminescence, IC50, dose response (AID 1117332); format: functional; conditions: HCT-116
[21] = SNU-C1 cell viability reduction, dose response, CellTiter-Glo luminescence (AID 1117323); format: functional, cell-based
[22] = cytotoxicity toward Colo320 cells – cell-based, CellTiter-Glo luminescence, IC50, dose response (AID 1117334); format: functional; conditions: COLO 320
[23] = HeLa 4N DNA content increase, dose response, cell-based, IC50 (AID 1117351); format: functional
[24] = cytotoxicity toward HT-29 cells – cell-based, CellTiter-Glo luminescence, IC50, dose response (AID 1117330); format: functional
[25] = CellTiter-Glo luminescent dose response of DLD-1 viability loss (AID 1117352); format: functional
[26] = HCT116 cell viability decrease, GSK3B pretreatment – CellTiter-Glo, IC50, dose response (AID 1117339); format: functional; conditions: HCT-116

Sequence of Paired box protein Pax-8 (Q06710 whole entry): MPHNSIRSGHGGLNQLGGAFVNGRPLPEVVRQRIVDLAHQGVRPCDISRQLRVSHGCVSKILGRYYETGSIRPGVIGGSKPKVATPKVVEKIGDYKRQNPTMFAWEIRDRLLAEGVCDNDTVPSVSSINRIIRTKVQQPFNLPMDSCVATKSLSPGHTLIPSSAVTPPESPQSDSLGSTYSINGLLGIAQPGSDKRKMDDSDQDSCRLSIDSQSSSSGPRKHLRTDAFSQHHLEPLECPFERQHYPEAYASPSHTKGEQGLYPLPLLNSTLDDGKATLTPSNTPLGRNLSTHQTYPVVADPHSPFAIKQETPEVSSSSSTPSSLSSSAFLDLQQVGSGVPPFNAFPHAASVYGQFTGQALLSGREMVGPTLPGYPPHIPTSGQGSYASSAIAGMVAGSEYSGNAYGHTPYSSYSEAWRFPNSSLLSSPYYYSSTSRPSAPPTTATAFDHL
Sequence of Protein Tat (P04608 whole entry): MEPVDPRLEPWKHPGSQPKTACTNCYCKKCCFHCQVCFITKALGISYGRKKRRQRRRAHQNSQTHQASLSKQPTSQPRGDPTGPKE
Sequence of Mitochondrial peptide methionine sulfoxide reductase (P54149 whole entry): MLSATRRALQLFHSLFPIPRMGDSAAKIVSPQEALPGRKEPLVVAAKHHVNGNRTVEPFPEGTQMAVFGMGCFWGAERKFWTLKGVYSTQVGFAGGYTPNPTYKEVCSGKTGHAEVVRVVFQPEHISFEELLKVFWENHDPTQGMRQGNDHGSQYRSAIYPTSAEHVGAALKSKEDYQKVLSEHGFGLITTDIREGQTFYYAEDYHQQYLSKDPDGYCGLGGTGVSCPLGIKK

Compound: [O-][n+]1ccc(C2CC2)cc1
- IC50 [1]: > 109 µM (inactive)
- IC50 [2]: > 83.4 µM (inactive)

Compound: Cc1ccc(CCC(=O)Nc2ccc(S(N)(=O)=O)cc2)o1
- IC50 [3]: > 100 µM (active)

Compound: CCCN(CCC)C(=O)Cn1c(=O)n(CCC(=O)NCCc2ccccc2)c(=O)c2ccccc21
- IC50 [1]: > 109 µM (inactive)
- IC50 [2]: > 83.3 µM (inactive)

Compound: COCCn1c2nc(=O)n(-c3ccccc3)c(=O)c-2nc2ccccc21
- EC50 [4]: 95.4 µM (inactive)
- EC50 [5]: 5.14 µM (active)
- AC50 [6]: 3.93 µM (active)
- AC50 [7]: 12.7 µM (active)
- AC50 [8]: 8.13 µM (active)

Compound: C[C@H]1CN([C@@H](C)CO)S(=O)(=O)c2ccc(C#Cc3ccccc3F)cc2O[C@@H]1CN(C)CC1CCOCC1
- AC50 [9]: 10.4 µM (active)
- AC50 [10]: < 0.26 µM (active)
- AC50 [11]: 34.1 µM (active)
- AC50 [12]: 28.9 µM (active)

Compound: C[C@@H]1CCCCO[C@H](CN(C)Cc2ccc(C(F)(F)F)cc2)[C@H](C)CN([C@@H](C)CO)C(=O)c2cc(NS(=O)(=O)c3ccc(F)cc3)ccc2O1
- AC50 [9]: 5.17 µM (active)
- AC50 [10]: 55.3 µM (active)
- AC50 [11]: 24 µM (active)
- AC50 [13]: 37 µM (active)
- AC50 [12]: 36.9 µM (active)

Compound: O=C1C=CCCN1C(=O)/C=C/c1cccc(C(F)(F)F)c1
- AC50 [14]: 1.77 µM (active)

Compound: C[C@@H](NC1=C(Nc2ccccc2)C(=O)c2ccccc2C1=O)c1ccccc1
- AC50 [15]: > 70 µM (inactive)
- AC50 [16]: 48.5 µM (active)

Compound: CCCCOC(=O)c1ccc(N)cc1 [BUTAMBEN]
- IC50 [17]: > 10 µM (inactive)
- IC50 [18]: 0.586 µM (active)
- IC50 [19]: 0.137 µM (active)
- IC50 [20]: > 20 µM (inactive)
- IC50 [21]: > 20 µM (inactive)
- IC50 [22]: > 20 µM (inactive)
- IC50 [23]: > 10 µM (inactive)
- IC50 [24]: > 20 µM (inactive)
- IC50 [25]: 4.56 µM (active)

Compound: COc1ccc2cc1Oc1ccc(cc1)C[C@H]1c3c(cc4c(c3Oc3cc5c(cc3OC)CCN(C)[C@@H]5C2)OCO4)CCN1C [CEPHARANTHINE]
- IC50 [17]: > 10 µM (inactive)
- IC50 [18]: 0.308 µM (active)
- IC50 [19]: 3.79 µM (active)
- IC50 [22]: 1.43 µM (active)
- IC50 [23]: > 10 µM (inactive)
- IC50 [24]: 1.36 µM (active)
- IC50 [26]: 3.57 µM (active)

Reference: ChEMBL document CHEMBL1201862, “PubChem BioAssay data set” (2004)
